For series [1], the system named is morning glory spp. Nature of the series: Herbicidal property on weeds. The format is in vivo. The conditions noted are these: for Herbicidal activity: all of the tested morning glory spp.
In series [2] the test system is morning glory spp. such as Ipomoea triloba L. and Ipomoea hederacea Jacq. The experiment in a line: Morning glory spp. control test with bialaphos solution (soybean field). The conditions noted are these: for Herbicidal effect 1 week after: water 100 L/10 a, sprayed up to 20 cm above ground. The format is in vivo. The procedure:
On Aug. 9, 2005, a bialaphos solution (active ingredient amount: 18%, used in the form of the sodium salt bialaphos-sodium, amount calculated for bialaphos) was sprayed (solution amount: 500 to 1500 mL/10 a, water amount: 100 L/10 a) to morning glory spp. (height: 55 cm to 70 cm) such as Ipomoea triloba L. and Ipomoea hederacea Jacq. generated between ridges in a soybean field and coiled around soybean, from land surface up to a height of 20 cm above ground, and the herbicidal effect thereafter was observed.

The next series has as its system Abutilon theophrasti. The experiment in a line: Herbicidal property on weeds. Particulars: in vivo.
The test system of another series is Solanum carolinense. The experiment in a line: Herbicidal property on weeds. Particulars: in vivo.
The next series relates to HIROHAFUURINHOZUKI
The experiment in a line: Herbicidal property on weeds. Particulars: in vivo.

For the next series, the system named is soybean. Nature of the series: Control machine-spraying of glufosinate (salt) on soybean inter-ridge: phytotoxicity and bean weight of soybean. The format is in vivo. The conditions noted are these: for Bean weight: soybean field with rampant morning glory spp., 500 mL/10 a sprayed August 9, crop November 11, non-sprayed district 96 ± 21. The procedure:
(§1) Soybean cultivation in the Tokai region is often carried out with large scale by farming associates and large scale farmhouses. Under such circumstances, morning glory spp. cause a serious problem in soybean fields during its growth period, and its controlling method is required to be established quickly. In soybean fields in Anjo City, Aichi Prefecture showing a problem of morning glory spp., a test for proving applicability of controlling morning glory spp. was performed using a control machine-spraying intending laborsaving.
(§2) A commercially available spraying apparatus was attached to the front side of a riding-type control machine, and glufosinate was sprayed from near ground edge. The nozzle position can be varied depending on ridge width and soybean height. In a theory of spraying a herbicide, the herbicide is introduced from a herbicide tank through a hose so that the herbicide can be sprayed on a lower part between ridges (suspending mode). Some farmhouses devise by themselves this spraying apparatus.

In the next series the test system is Ipomoea triloba L. The experiment in a line: Morning glory spp. control test: glufosinate (salt) sprayed only on lower half portion of hill. The format is in vivo. Particulars: treated Aug. 13, 2005, examined August 23. Also on record: key: +++ complete death; ++ almost death; + partial death; − no effect. As to the method: (§3) In the case of spraying of glufosinate (salt) only on the lower half portion of a hill of morning glory spp:
(§4) Ipomoea hederacea Jacq. and Ipomoea triloba L. generated in the form of grapevine and at the edge of a soybean field in Anjo City, Aichi Prefecture were tested. A 200-fold diluted solution of glufosinate was sprayed only on the lower half portion of the hill while covering the upper half portion thereof with plastic film so that the solution was not sprayed thereon. Thereafter, effects on the lower and upper half portions were observed.

For another series, the system named is Ipomoea hederacea Jacq. The description is as above. The format is in vivo. Also on record: key to Effect, upper half portion of hill / Effect, lower half portion of hill: +++ complete death; ++ almost death; + partial death; − no effect. The procedure:
as §3, §4

A further series has as its system Ipomoea lacunosa L. Nature of the series: Morning glory spp. control test: glufosinate (salt) sprayed only on upper portion of stem (pot test). The format is in vivo. Details: key to Effect, leaf 6 / Effect, leaf 5 / Effect, leaf 4 / Effect, leaf 3 / Effect, leaf 2 / Effect, leaf 1 / Effect, root / Effect, peak portion of stem / Effect, leaf 8 / Effect, leaf 7: +++ complete death; ++ almost death; + partial death; − no effect. The procedure: In the case of spraying of glufosinate (salt) only on the upper portion of morning glory spp:
Ipomoea lacunosa L. (eight leaves) in a pot was tested. A 200-fold diluted solution of glufosinate (salt) was sprayed only on the upper portion of a stem while preventing spraying on the lower portion thereof. Thereafter, effects on respective portions were observed.

Another series relates to Sida spinosa L. The experiment in a line: Herbicidal property on weeds. The conditions noted are these: in vivo.
The test system of series [3] is morning glory spp. The experiment in a line: Control machine-spraying of glufosinate (salt) on soybean inter-ridge: herbicidal effect. The format is in vivo. The conditions noted are these: 500 mL/10 a in 100 L/10 a water. As to the method:
as §1, §2
In spraying (FIGS. 1, 2 and 3), morning glory spp. developed almost all over the field, and some of them coiled around soybean, the peak portion thereof extending up to over the head portion of soybean. FIG. 1 is a photograph showing full view of glufosinate spraying. FIG. 2 is a photograph showing glufosinate (salt) sprayed part. FIG. 3 is a photograph showing a herbicidal process of glufosinate (salt). […] FIG. 4 is a photograph showing the killing effect of glufosinate (salt) ranging to the peak portion (shown with an arrow) of the stem of Ipomoea triloba L. (14 days after spraying, August 23). […] This effect appeared even in the peak portion of the stem extending up to over the head portion of the soybean, and in this portion, leaves and stems of morning glory spp. turned to yellow. […] From these phenomena, it was believed that the morning glory spp. show very higher sensitivity to glufosinate (salt) than soybean.

The next series relates to Aeschynomene indica. The experiment in a line: Herbicidal property on weeds. The conditions noted are these: in vivo.
Setting [4] is: scattering to soybean, 500 mL/10 a.
Setting [5] is: not sprayed, 200-fold diluted solution sprayed from peak to between sixth and seventh leaves, examined November 6.
The mark [6] stands for this setting: sprayed region, 200-fold diluted solution sprayed on upper portion of stem, treated Oct. 23, 2005, examined November 6.

Counter-ions that a name gives are not always drawn.

For the compound `CC(C)N.O=C(O)CNCP(=O)(O)O` [glyphosate isopropylammonium], in the series on morning glory spp. [1] (at the field level in this test range), the “Herbicidal activity at the field level” value was “insufficient”. In addition, the “Manifestation of the activity” value in the series with morning glory spp. [1] (on these plants (morning glory spp. and the other tested weeds)) is reported as “specifically slow manifestation of the activity”.

For the compound `C[C@H](NC(=O)[C@H](C)NC(=O)[C@@H](N)CCP(C)(=O)O)C(=O)O` [bialaphos solution, bialaphos], the “Herbicidal effect 1 week after” value in series [2] (solution amount 500 mL/10 a), in series [2] (solution amount 1000 mL/10 a) and in series [2] (solution amount 1500 mL/10 a) was “died up to the peak portion of vine” in each case. Moreover, the “Onset of effect after the treatment” value in series [2] (sprayed from land surface up to 20 cm above ground, 500 to 1500 mL/10 a) is “observed from the next day after the treatment”.

In the case of `CC(C)N1C(=O)c2ccccc2NS1(=O)=O` [Pentazone], the Herbicidal activity result was “lower activity” in the series on morning glory spp. [1] and “high activity” with Abutilon theophrasti.

With `CP(=O)(O)CCC(N)C(=O)O` (stereo not shown) [glufosinate (salt), glufosinate], the Herbicidal activity result in the series with Solanum carolinense is recorded as “high activity”. For the same compound, the Herbicidal activity result with HIROHAFUURINHOZUKI was “high activity”. The “Phytotoxicity in soybean on spraying only the lower portion of a stem of morning glory spp.” value in the series on soybean (control machine spraying in soybean field) is listed as “scarce phytotoxicity”. In the series with soybean (setting [4]), the “Phytotoxicity in the cotyledon and the first leaf of soybean” value was “observed”; the “Phytotoxicity in the upper leaves of soybean” value is given as “little phytotoxicity”. Also, the Bean weight with soybean (listed as Glufosinate (salt)) is listed as 193 ± 29 kg/10 a. Further, the Bean weight with soybean (listed as glufosinate) was 193 kg/10 a. Besides, the “Effect, lower half portion of hill” value with Ipomoea triloba L. (200-fold diluted solution sprayed on lower half portion (sprayed portion)) is given as “+++”. The “Effect, upper half portion of hill” value with Ipomoea triloba L. (200-fold diluted solution sprayed on lower half portion only, upper half not sprayed, hills around 70 cm) is reported as “+++”. Besides, the “Effect, lower half portion of hill” value with Ipomoea hederacea Jacq. (200-fold diluted solution sprayed on lower half portion (sprayed portion), treated Aug. 13, 2005, examined August 23) is recorded as “+++”. For the same compound, in the series on Ipomoea hederacea Jacq. (200-fold diluted solution sprayed on lower half portion only, upper half not sprayed, treated Aug. 13, 2005, examined August 23, hills around 70 cm), the “Effect, upper half portion of hill” value is recorded as “+++”. The “Where activity appeared after spraying only the lower half portion of the hill” value in the series on Ipomoea hederacea Jacq. (morning glory spp. (Ipomoea hederacea Jacq. and Ipomoea triloba L., see Table 1)) is “appeared not only in the lower half portion of the hill but also in the peak thereof”. In addition, in the series with Ipomoea lacunosa L. (setting [5]), the “Effect, leaf 1” value was “−”; the “Effect, leaf 2” value is “−”; the “Effect, leaf 3” value is “−”; the “Effect, leaf 4” value is “−”. Moreover, in the series with Ipomoea lacunosa L. (setting [5]), the “Effect, leaf 5” value is “++”; the “Effect, leaf 6” value was “++”; the “Effect, root” value is listed as “−”. Moreover, in the series on Ipomoea lacunosa L. (see Table 2), the “Effect in the lower leaves and in root after spraying only the upper portion of the stem” value was “not observed”; the “Effect under the sprayed region after spraying only the upper portion of the stem” value was “observed in one to two leaves under the sprayed region”. Moreover, in the series on Ipomoea lacunosa L. (setting [6]), the “Effect, leaf 7” value is “+++”; the “Effect, leaf 8” value is recorded as “+++”; the “Effect, peak portion of stem” value was “+++”. Moreover, in the series with Sida spinosa L., the Herbicidal activity result is “high activity”. In addition, the “Herbicidal effect 4 days after spraying” value in the series on morning glory spp. [3] (August 13) is given as “most of leaves at grapevine-form parts of the morning glory spp. died”. Further, the “Herbicidal effect 14 days after spraying” value in the series with morning glory spp. [3] (August 23) is on record as “most of the morning glory spp. died up to the peak portion of the stem”. Besides, in the series with morning glory spp. [3] (soybean field), the “Onset of herbicidal effect after spraying” value is listed as “observed from the next day after spraying”. Further, the “Herbicidal activity at low herbicidal amount” value in the series on morning glory spp. [1] (100 mL/10 a) is given as “high activity”. For the same compound, the Herbicidal activity entry with morning glory spp. [1] is given as “high activity”. Further, the Herbicidal activity result in the series on Abutilon theophrasti is reported as “high activity”. Besides, the Herbicidal activity result in the series on Aeschynomene indica is “high activity”.

The values above are taken from US7888286B2, “Method of selectively controlling morning glory (Ipomoea) spp” (Bayer CropScience AG, priority 2006, dated 2011).
